Where two headings read alike, the source gives them in different places.
Legend:
HBV = assay: Determination of HBV DNA from the supernatants of HepAD38 cells (anti-HBV activity); type: cell-based, hepatitis B virus; conditions: Hepatitis B virus, read-out: Cell Activity (EC50)
In short: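 Supernatant viral DNA was measured by LightCycler qPCR, calibrated with pCH-9/3091 plasmid, 6 days after tetracycline-free HepAD38 cultures received half-log serial compound dilutions; untreated and tetracycline-treated cells served as controls; EC50 was fitted by non-linear regression.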

[1] = Cell viability assay (AlamarBlue) in HepAD38 cells; conditions: human
HBV core protein = target: T1, HBV core protein (UniProt P03146); assay: Biochemical capsid assembly assay (fluorescence quenching); parameters: species or system hepatitis B virus; conditions: read-out: Assembly Activity (IC50); BODIPY-FL labelled core protein, 300 μM NaCl, read 6 min after start
T1 construct: fused on or other part: BODIPY-FL maleimide label on the C-terminal Cys150
T1 sequence (P03146 whole entry, looked up, the tested form may be a part): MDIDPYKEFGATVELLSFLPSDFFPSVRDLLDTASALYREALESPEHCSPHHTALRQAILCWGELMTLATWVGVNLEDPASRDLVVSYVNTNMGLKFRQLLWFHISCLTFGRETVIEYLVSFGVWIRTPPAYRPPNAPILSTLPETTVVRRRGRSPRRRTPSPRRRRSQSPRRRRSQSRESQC
In short: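 Assembly-induced fluorescence quenching (477/525 nm) was measured 6 min after NaCl addition ([…]), against 2.5 M and 0 M NaCl controls. The labelled C150 core dimer (truncated at 149) at 1.0-2.0 μM in HEPES pH 7.5 was tested with eight half-log compound dilutions, top 100, 31.6 or 10 μM. EC50 was obtained by non-linear fit from triplicates run three times.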

[2] = 144 h, HBV DNA in HepAD38 supernatant, day 6, qPCR

Row | SMILES | EC50 (HBV; [2]) [µM] | CC50 at 6 days [1] [µM] | IC50 (HBV core protein) [µM] | EC50 (HBV; HePAD38, 144 h) [µM]
1 | COCC1(N(C)C(=O)c2n[nH]c3c2CN(C(=O)c2cc4c(Cl)cccc4[nH]2)CC3)CC1 [Example 262, 5-(4-chloro-1H-indole-2-carbonyl)-N-[1-(methoxymethyl)cyclopropyl]-N-methyl-1H,4H,5H,6H,7H-pyrazolo[4,3-c]pyridine-3-carboxamide] | < 1 | > 10 | < 5 | –
2 | CCc1cc(F)cc2[nH]c(C(=O)N3CCc4[nH]nc(C(=O)N(C)C5(CO)CC5)c4C3)cc12 [Example 271, 5-(4-ethyl-6-fluoro-1H-indole-2-carbonyl)-N-[1-(hydroxymethyl)cyclopropyl]-N-methyl-1H,4H,5H,6H,7H-pyrazolo[4,3-c]pyridine-3-carboxamide] | < 1 | > 10 | < 5 | –
3 | CN(C(=O)c1[nH]nc2c1CN(C(=O)c1cc3ccccc3[nH]1)CC2)C1(CO)COC1 [Example 249, N-[3-(hydroxymethyl)oxetan-3-yl]-5-(1H-indole-2-carbonyl)-N-methyl-2H,4H,5H,6H,7H-pyrazolo[4,3-c]pyridine-3-carboxamide] | < 1 | > 10 | < 5 | –
4 | CCN(C(=O)c1n[nH]c2c1CN(C(=O)c1cc3ccccc3[nH]1)CC2)C1(COC)CC1 [Example 296, N-ethyl-5-(1H-indole-2-carbonyl)-N-[1-(methoxymethyl)cyclopropyl]-1H,4H,5H,6H,7H-pyrazolo[4,3-c]pyridine-3-carboxamide] | < 1 | > 10 | < 5 | –
5 | COCC1(N(CC(F)(F)F)C(=O)c2n[nH]c3c2CN(C(=O)c2cc4ccccc4[nH]2)CC3)CC1 [Example 313, 5-(1H-indole-2-carbonyl)-N-[1-(methoxymethyl)cyclopropyl]-N-(2,2,2-trifluoroethyl)-1H,4H,5H,6H,7H-pyrazolo[4,3-c]pyridine-3-carboxamide] | < 1 | > 10 | < 5 | –
6 | CC1(O)CN(C(=O)c2n[nH]c3c2CN(C(=O)c2cc4ccccc4[nH]2)CC3)C1 [Example 34, 1-[5-(1H-indole-2-carbonyl)-1H,4H,5H,6H,7H-pyrazolo[4,3-c]pyridine-3-carbonyl]-3-methylazetidin-3-ol] | < 1 | > 15 | < 100 | –
7 | COCC1(N(C(=O)c2n[nH]c3c2CN(C(=O)c2cc4ccccc4[nH]2)CC3)C(C)C)CC1 [Example 304, 5-(1H-indole-2-carbonyl)-N-[1-(methoxymethyl)cyclopropyl]-N-(propan-2-yl)-1H,4H,5H,6H,7H-pyrazolo[4,3-c]pyridine-3-carboxamide] | < 1 | > 10 | < 5 | –
8 | CS(=O)(=O)Nc1n[nH]c2c1CN(C(=O)c1cc3ccccc3[nH]1)CC2 [Example 82, N-[5-(1H-indole-2-carbonyl)-1H,4H,5H,6H,7H-pyrazolo[4,3-c]pyridin-3-yl]methanesulfonamide] | < 100 | > 100 | < 100 | –
9 | CC(C)OC(=O)[C@H](C)NP(=O)(OCCN(C)C(=O)c1n[nH]c2c1CN(C(=O)c1cc3ccccc3[nH]1)CC2)Oc1ccccc1 (stereo partly drawn) [Example 71, propan-2-yl (2S)-2-{[(2-{1-[5-(1H-indole-2-carbonyl)-1H,4H,5H,6H,7H-pyrazolo[4,3-c]pyridin-3-yl]-N-methylformamido}ethoxy)(phenoxy)phosphoryl]amino}propanoate] | – | > 32 | 5 to 10 | 1 to 25
10 | CON(C)C(=O)c1n[nH]c2c1CN(C(=O)c1cc3c(C)cc(F)cc3[nH]1)CC2 [Example 128, 5-(6-fluoro-4-methyl-1H-indole-2-carbonyl)-N-methoxy-N-methyl-1H,4H,5H,6H,7H-pyrazolo[4,3-c]pyridine-3-carboxamide] | < 1 | 98 | < 5 | –
11 | CC(=O)N1CCN(C(=O)c2n[nH]c3c2CN(C(=O)c2cc4ccccc4[nH]2)CC3)C(C)(C)C1 [Example 163, 1-{4-[5-(1H-indole-2-carbonyl)-1H,4H,5H,6H,7H-pyrazolo[4,3-c]pyridine-3-carbonyl]-3,3-dimethylpiperazin-1-yl}ethan-1-one] | 1 to 25 | > 10 | < 100 | –
12 | CCNC(=O)c1n[nH]c2c1CN(C(=O)c1cc3ccccc3[nH]1)CC2 [Example 109, N-ethyl-5-(1H-indole-2-carbonyl)-1H,4H,5H,6H,7H-pyrazolo[4,3-c]pyridine-3-carboxamide] | 1 to 25 | > 100 | 5 to 10 | –
13 | O=C(c1cc2ccccc2[nH]1)N1CCc2[nH]nc(OC3CCCC3)c2C1 [Example 203, 2-[3-(cyclopentyloxy)-1H,4H,5H,6H,7H-pyrazolo[4,3-c]pyridine-5-carbonyl]-1H-indole] | < 1 | > 10 | 5 to 10 | –
14 | C#CCOCC1(N(C)C(=O)c2n[nH]c3c2CN(C(=O)c2cc4ccccc4[nH]2)CC3)CC1 [Example 315, 5-(1H-indole-2-carbonyl)-N-methyl-N-{1-[(prop-2-yn-1-yloxy)methyl]cyclopropyl}-1H,4H,5H,6H,7H-pyrazolo[4,3-c]pyridine-3-carboxamide] | < 1 | > 10 | < 5 | –
15 | O=C(c1cc2ccccc2[nH]1)N1CCc2[nH]nc(C(=O)N3CCOCC3)c2C1 [Example 108, 2-[3-(morpholine-4-carbonyl)-1H,4H,5H,6H,7H-pyrazolo[4,3-c]pyridine-5-carbonyl]-1H-indole] | 1 to 25 | > 100 | < 100 | –
16 | CN(c1n[nH]c2c1CN(C(=O)c1cc3ccccc3[nH]1)CC2)S(C)(=O)=O [Example 74, N-[5-(1H-indole-2-carbonyl)-1H,4H,5H,6H,7H-pyrazolo[4,3-c]pyridin-3-yl]-N-methylmethanesulfonamide] | 1 to 25 | > 100 | < 100 | –
17 | CN(CC(C)(C)O)C(=O)c1n[nH]c2c1CN(C(=O)c1cc3ccccc3[nH]1)CC2 [Example 43, N-(2-hydroxy-2-methylpropyl)-5-(1H-indole-2-carbonyl)-N-methyl-1H,4H,5H,6H,7H-pyrazolo[4,3-c]pyridine-3-carboxamide] | < 1 | > 32 | 5 to 10 | –
18 | CN(CCO)C(=O)c1n[nH]c2c1CN(C(=O)c1cc3c(Br)cccc3[nH]1)CC2 [Example 30, 5-(4-bromo-1H-indole-2-carbonyl)-N-(2-hydroxyethyl)-N-methyl-1H,4H,5H,6H,7H-pyrazolo[4,3-c]pyridine-3-carboxamide] | < 1 | > 10 | < 5 | –
19 | O=C(c1cc2c(Cl)cccc2[nH]1)N1CCc2n[nH]c(-c3cscn3)c2C1 [Example 19, 4-chloro-2-[3-(1,3-thiazol-4-yl)-2H,4H,5H,6H,7H-pyrazolo[4,3-c]pyridine-5-carbonyl]-1H-indole] | < 1 | > 10 | < 5 | –
20 | CN(OCCO)C(=O)c1n[nH]c2c1CN(C(=O)c1cc3ccccc3[nH]1)CC2 [Example 198, N-(2-hydroxyethoxy)-5-(1H-indole-2-carbonyl)-N-methyl-1H,4H,5H,6H,7H-pyrazolo[4,3-c]pyridine-3-carboxamide] | < 1 | > 10 | < 5 | –
21 | CON(C)C(=O)c1n[nH]c2c1CN(C(=O)c1cc3c(Cl)cc(F)cc3[nH]1)CC2 [Example 126, 5-(4-chloro-6-fluoro-1H-indole-2-carbonyl)-N-methoxy-N-methyl-1H,4H,5H,6H,7H-pyrazolo[4,3-c]pyridine-3-carboxamide] | < 1 | > 32 | < 5 | –
22 | CC(C)OC(=O)[C@H](C)NP(=O)(OCCON(C)C(=O)c1n[nH]c2c1CN(C(=O)c1cc3ccccc3[nH]1)CC2)Oc1ccccc1 (stereo partly drawn) [Example 64, propan-2-yl (2S)-2-({[2-({1-[5-(1H-indole-2-carbonyl)-1H,4H,5H,6H,7H-pyrazolo[4,3-c]pyridin-3-yl]-N-methylformamido}oxy)ethoxy](phenoxy)phosphoryl}amino)propanoate] | – | > 32 | < 5 | < 1
23 | CC(CO)N(C)C(=O)c1n[nH]c2c1CN(C(=O)c1cc3ccccc3[nH]1)CC2 (stereo not drawn) [Example 42, N-(1-hydroxypropan-2-yl)-5-(1H-indole-2-carbonyl)-N-methyl-1H,4H,5H,6H,7H-pyrazolo[4,3-c]pyridine-3-carboxamide] | 1 to 25 | > 100 | 5 to 10 | –
24 | CCOCCN(C)C(=O)c1n[nH]c2c1CN(C(=O)c1cc3ccccc3[nH]1)CC2 [Example 255, N-(2-ethoxyethyl)-5-(1H-indole-2-carbonyl)-N-methyl-1H,4H,5H,6H,7H-pyrazolo[4,3-c]pyridine-3-carboxamide] | < 1 | > 10 | < 5 | –
25 | O=C(c1cc2ccccc2[nH]1)N1CCc2[nH]nc(C(=O)N3CCSCC3)c2C1 [Example 159, 2-[3-(thiomorpholine-4-carbonyl)-1H,4H,5H,6H,7H-pyrazolo[4,3-c]pyridine-5-carbonyl]-1H-indole] | < 1 | > 10 | < 5 | –
